These compounds were tested against His-GST tagged PARG (Homo sapiens, UniProt Q86W56) (assay: In vitro PARG assay (TR-FRET)). Details: 4 pM His-GST tagged PARG, 30 nM Bio PARylated PARP1 substrate, 20 min at room temperature, TR-FRET Em 665/Em 615.
Assay type: biochemical
Description: The in vitro PARG assay experiment was conducted in a standard 384-well plate with a total volume of 15 µL. To a 384-well plate containing the test compound was added 5 µL of an enzyme reaction mixture (50 mM Tris-HCL pH 7.5, 50 mM KCL, 0.01% Triton X-100, 0.01% BSA, and 4 pM His-GST tagged PARG). The plate was incubated at room temperature for 10 min, and then 5 µL of a substrate mixture (50 mM Tris-HCL pH 7.5, 50 mM KCL, 0.01% Triton X-100, 0.01% BSA, and 30 nM Bio PARylated PARP1) was added to initiate the reaction. The plate was further incubated at room temperature for 20 min, and then 5 µL of a detection reagent was added to terminate the reaction. The detection reagent was prepared from a buffer (50 mM Tris-HCl pH 7.5, 50 mM KCL, 0.01% Triton X-100, and 0.01% BSA), 3 µM compound PDD00017273, 1.5× Mab anti-6HIS XL665 (Cisbio: 61HISXLA), and 1.5× streptavidin terbium cryptate (Cisbio: 610SATLA). The final concentrations of the compound PDD00017273, the 1.5× Mab anti-6HIS XL665 (Cisbio: 61HISXLA), and the 1.5× streptavidin terbium cryptate were 1 µM, 0.5×, and 0.5×, respectively. After incubation in the dark at room temperature for 120 min, TR-FRET signals were measured at Ex 340, Em 665, and Em 615. The ratio for each well was calculated as Em 665/Em 615 (the ratio here corresponds to the ratio of fluorescence signals at the wavelengths).

Sequence of His-GST tagged PARG (Q86W56 whole entry): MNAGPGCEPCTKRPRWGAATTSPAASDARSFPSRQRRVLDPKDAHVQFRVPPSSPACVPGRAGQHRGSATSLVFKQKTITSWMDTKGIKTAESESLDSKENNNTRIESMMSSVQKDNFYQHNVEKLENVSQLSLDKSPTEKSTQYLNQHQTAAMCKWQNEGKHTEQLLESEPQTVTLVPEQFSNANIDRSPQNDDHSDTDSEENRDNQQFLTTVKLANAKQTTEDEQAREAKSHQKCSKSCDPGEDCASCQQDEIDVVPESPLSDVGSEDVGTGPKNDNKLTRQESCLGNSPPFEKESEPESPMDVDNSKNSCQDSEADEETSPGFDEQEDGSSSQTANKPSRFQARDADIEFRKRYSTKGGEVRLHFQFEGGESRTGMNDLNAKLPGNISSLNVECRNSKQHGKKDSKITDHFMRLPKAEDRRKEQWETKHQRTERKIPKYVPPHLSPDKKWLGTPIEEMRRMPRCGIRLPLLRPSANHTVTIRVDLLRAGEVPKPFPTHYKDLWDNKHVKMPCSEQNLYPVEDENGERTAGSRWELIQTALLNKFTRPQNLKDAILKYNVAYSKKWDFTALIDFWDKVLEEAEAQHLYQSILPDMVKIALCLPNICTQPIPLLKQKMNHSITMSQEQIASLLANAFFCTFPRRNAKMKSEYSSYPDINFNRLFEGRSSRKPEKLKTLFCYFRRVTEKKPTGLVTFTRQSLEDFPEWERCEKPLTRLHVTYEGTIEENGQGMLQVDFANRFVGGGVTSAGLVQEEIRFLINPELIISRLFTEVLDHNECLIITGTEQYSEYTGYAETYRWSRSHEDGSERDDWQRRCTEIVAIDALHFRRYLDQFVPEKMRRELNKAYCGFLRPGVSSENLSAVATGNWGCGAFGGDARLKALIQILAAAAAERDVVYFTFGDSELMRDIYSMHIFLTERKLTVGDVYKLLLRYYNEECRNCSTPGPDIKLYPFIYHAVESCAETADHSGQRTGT

Row | SMILES | IC50 [nM]
1 | C[C@@H]1CN(c2cc(S(=O)(=O)NC3(C#N)CC3)cc3c2cnn3-c2nnc(C(F)F)s2)CCN1C(=O)C(C)(C)O [EVO29339] | < 100
2 | C[C@@H]1CN(c2cc(S(=O)(=O)NC3(C#N)CC3)cc3c2cnn3-c2nnc(C(F)F)s2)CCN1C(=O)C(O)C1CC1 (single isomer, unassigned) [EVO29537] | < 100
3 | COC(C)(C)C(=O)N1CCN(c2cc(S(=O)(=O)NC3(C)CC3)cc3c2cnn3-c2nnc(C(F)F)s2)C[C@H]1C [EVO29503] | < 100
4 | C[C@@H]1CN(c2cc(S(=O)(=O)NC3(C#N)CC3)cc3c2cnn3-c2nnc(C(F)F)s2)CCN1C(=O)[C@@H](C)O [EVO29285] | < 100
5 | Cc1nnc(-n2ncc3c(N4CCN(C(=O)[C@@H](C)O)[C@H](C)C4)cc(S(=O)(=O)NC4(C#N)CC4)cc32)s1 [EVO29336] | < 100
6 | CO[C@H](C)C(=O)N1CCN(c2cc(S(=O)(=O)NC3(C#N)CC3)cc3c2cnn3-c2nnc(C)s2)C[C@H]1C [EVO29411] | < 100
7 | Cc1nnc(-n2ncc3c(N4CCN(C(=O)[C@@H](N)CO)[C@H](C)C4)cc(S(=O)(=O)NC4(C)CC4)cc32)s1 [EVO29314] | 100 to 500
8 | CC(=O)C(=O)N1CCN(c2cc(S(=O)(=O)NC3(C)CC3)cc3c2cnn3-c2nnc(C(F)F)s2)C[C@H]1C [EVO29388] | < 100
9 | C[C@@H]1CN(c2cc(S(=O)(=O)NC3(C#N)CC3)cc3c2cnn3-c2nnc(C(F)F)s2)CCN1C(=O)[C@@](C)(O)C(F)(F)F [EVO29463] | < 100
10 | CO[C@@H](C(=O)N1CCN(c2cc(S(=O)(=O)NC3(C)CC3)cc3c2cnn3-c2nnc(C(F)F)s2)C[C@H]1C)C(C)C [EVO29419] | < 100
11 | C[C@@H](O)C(=O)N1CCN(c2cc(S(=O)(=O)NC3(C#N)CC3)cc3c2cnn3-c2nnc(C(F)F)s2)CC1 [EVO29284] | < 100
12 | C[C@H](O)C(=O)N1CCN(c2cc(S(=O)(=O)NC3(C#N)CC3)cc3c2cnn3-c2nnc(C(F)F)s2)C[C@H]1C [EVO29334] | < 100
13 | CC(C)C(=O)C(=O)N1CCN(c2cc(S(=O)(=O)NC3(C#N)CC3)cc3c2cnn3-c2nnc(C(F)F)s2)CC1 [EVO29417] | < 100
14 | CO[C@@H](C(=O)N1CCN(c2cc(S(=O)(=O)NC3(C)CC3)cc3c2cnn3-c2nnc(C)s2)C[C@H]1C)C(C)C [EVO29421] | < 100
15 | C[C@@H]1CN(c2cc(S(=O)(=O)NC3(C#N)CC3)cc3c2cnn3-c2nnc(C(F)F)s2)CCN1C(=O)[C@](C)(O)C(F)(F)F [EVO29462] | < 100
16 | C[C@@H]1CN(c2cc(S(=O)(=O)NC3(C)CC3)cc3c2cnn3-c2nnc(C(F)F)s2)CCN1C(=O)[C@](C)(O)C(F)(F)F [EVO29496] | < 100
17 | CCOC(C)(C)C(=O)N1CCN(c2cc(S(=O)(=O)NC3(C)CC3)cc3c2cnn3-c2nnc(C(F)F)s2)C[C@H]1C [EVO29507] | < 100
18 | C[C@@H]1CN(c2cc(S(=O)(=O)NC3(C)CC3)cc3c2cnn3-c2nnc(C(F)F)s2)CCN1C(=O)C(C)(C)O [EVO29469] | < 100
19 | CO[C@H](C)C(=O)N1CCN(c2cc(S(=O)(=O)NC3(C)CC3)cc3c2cnn3-c2nnc(C)s2)C[C@H]1C [EVO29412] | < 100
20 | CO[C@H](C)C(=O)N1CCN(c2cc(S(=O)(=O)NC3(C)CC3)cc3c2cnn3-c2nnc(C(F)F)s2)C[C@H]1C [EVO29410] | < 100
21 | CC(C)C(=O)C(=O)N1CCN(c2cc(S(=O)(=O)NC3(C#N)CC3)cc3c2cnn3-c2nnc(C(F)F)s2)C[C@H]1C [EVO29291] | < 100
22 | CO[C@@H](C(=O)N1CCN(c2cc(S(=O)(=O)NC3(C#N)CC3)cc3c2cnn3-c2nnc(C(F)F)s2)C[C@H]1C)C(C)C [EVO29418] | < 100
23 | CC(C)C(=O)C(=O)N1CCN(c2cc(S(=O)(=O)NC3(C)CC3)cc3c2cnn3-c2nnc(C(F)F)s2)C[C@H]1C [EVO29383] | < 100
24 | CO[C@@H](C(=O)N1CCN(c2cc(S(=O)(=O)NC3(C#N)CC3)cc3c2cnn3-c2nnc(C)s2)C[C@H]1C)C(C)C [EVO29420] | < 100
25 | C[C@@H]1CN(c2cc(S(=O)(=O)NC3(C#N)CC3)cc3c2cnn3-c2nnc(C(F)F)s2)CCN1C(=O)C(N)=O [EVO29298] | < 100
26 | C[C@H](CO)C(=O)N1CCN(c2cc(S(=O)(=O)NC3(C#N)CC3)cc3c2cnn3-c2nnc(C(F)F)s2)C[C@H]1C [EVO29351] | < 100

Next, values leading:

Row | IC50 [nM] | SMILES
27 | < 100 | C[C@@H]1CN(c2cc(S(=O)(=O)NC3(C#N)CC3)cc3c2cnn3-c2nnc(C(F)F)s2)CCN1C(=O)C(O)C(C)(C)CO (single isomer, unassigned) [EVO29790P1]
28 | < 100 | COC(C(=O)N1CCN(c2cc(S(=O)(=O)NC3(C#N)CC3)cc3c2cnn3-c2nnc(C(F)F)s2)C[C@H]1C)C1CC1 (single isomer, unassigned) [EVO29715P2]
29 | < 100 | CO[C@@H](C(=O)N1CCN(c2cc(S(=O)(=O)NC3(C#N)CC3)cc3c2cnn3-c2nnc(C(F)F)s2)C[C@H]1C)C(C)(C)C [EVO29736]
30 | < 100 | CCOC(C(=O)N1CCN(c2cc(S(=O)(=O)NC3(C#N)CC3)cc3c2cnn3-c2nnc(C(F)F)s2)C[C@H]1C)C1CC1 (single isomer, unassigned) [EVO29710P2]
31 | < 100 | C[C@@H]1CN(c2cc(S(=O)(=O)NC3(C#N)CC3)cc3c2cnn3-c2nnc(C(F)F)s2)CCN1C(=O)C(O)C(C)(C)CO (single isomer, unassigned) [EVO29790P2]
32 | < 100 | C[C@@H]1CN(c2cc(S(=O)(=O)NC3(C#N)CC3)cc3c2c(F)nn3-c2nnc(C(F)F)s2)CCN1C(=O)[C@@](C)(O)C(F)(F)F [EVO29761]
33 | < 100 | CCOC(C(=O)N1CCN(c2cc(S(=O)(=O)NC3(C#N)CC3)cc3c2cnn3-c2nnc(C(F)F)s2)C[C@H]1C)C1CC1 (single isomer, unassigned) [EVO29710P1]
34 | < 100 | C[C@@H]1CN(c2cc(S(=O)(=O)NC3(C#N)CC3)cc3c2c(F)nn3-c2nnc(C(F)F)s2)CCN1C(=O)[C@](C)(O)C(F)(F)F [EVO29762]
35 | < 100 | C[C@@H]1CN(c2cc(S(=O)(=O)NC3(C#N)CC3)cc3c2cnn3-c2nnc(C(F)F)s2)CCN1C(=O)C(O)C(C)(C)CF (single isomer, unassigned) [EVO29751P1]
36 | < 100 | C[C@@H]1CN(c2cc(S(=O)(=O)NC3(C#N)CC3)cc3c2cnn3-c2nnc(C(F)F)s2)CCN1C(=O)C(O)C(C)(C)C(F)F (single isomer, unassigned) [EVO29752P2]
37 | < 100 | COC(C(=O)N1CCN(c2cc(S(=O)(=O)NC3(C#N)CC3)cc3c2cnn3-c2nnc(C(F)F)s2)C[C@H]1C)C1CC1 (single isomer, unassigned) [EVO29715P1]
38 | 100 to 500 | C[C@@H]1CN(c2c(F)c(S(=O)(=O)NC3(C#N)CC3)cc3c2c(F)nn3-c2nnc(C(F)F)s2)CCN1C(=O)[C@H](O)C(C)(C)C [EVO29792]
39 | 100 to 500 | C[C@@H]1CN(c2cc(S(=O)(=O)NC3(C#N)CC3)cc3c2nnn3-c2nnc(C(F)F)s2)CCN1C(=O)[C@H](O)C(C)(C)C [EVO29725]
40 | < 100 | C[C@@H]1CN(c2cc(S(=O)(=O)NC3(C)CC3)cc3c2c(F)nn3-c2nnc(C(F)F)s2)CCN1C(=O)[C@H](O)C(C)(C)C [EVO29798]
41 | < 100 | CC(C)(C)[C@@H](O)C(=O)N1CCN(c2cc(S(=O)(=O)NC3(C#N)CC3)cc3c2cnn3-c2nnc(C(F)F)s2)C[C@H]1CF [EVO29778]
42 | < 100 | C[C@@H]1CN(c2cc(S(=O)(=O)NC3(C#N)CC3)cc3c2c(F)nn3-c2nnc(C(F)F)s2)CCN1C(=O)[C@H](O)C(C)(C)C [EVO29757]
